What was measured:
[1] = endogenous TTR; cited from earlier work
Pregnant IL-10−/− mice = test: In vivo rescue of PE serum induced preeclampsia-like symptoms in pregnant IL-10-/- mice
Experimental: Recombinantly produced TTR (detected by SDS-PAGE electrophoresis and purity 96%) was obtained from AbD Serotec, Raleigh, N.C. 27604, USA. Recombinant TTR obtained in lyophilized form was reconstituted with sterile phosphate-saline buffer to obtain a final concentration of 1 mg/ml and maintained at >pH 7.0. The solutions were stored as aliquots and frozen at −80° C. until use. Thirty minutes prior to experimentation, the aliquots of TTR were thawed, then mixed with 100 μl of PE serum samples. Pregnant IL-10^−/− mice (C57BL/6, Jackson Labs, USA) were then injected intraperitoneally on gestational day (g.d.) 10 at a TTR dose of 20 microgram/mouse. The gestational period in mice is 20 days. Similarly, 100 μl PE serum or normal pregnancy serum was administered to different set of animals as control. On g.d.16/17, urine and serum samples were collected from each mouse, and blood pressure measurements were taken. Blood pressure was taken by an established tail-cuff method which utilizes a programmed sphygmomanometer. The animals adapted for 5 min using a warming test chamber (IITC Life Science Inc, Woodland Hills, Calif.) at controlled temperature (35° C.). The measurements were carried out on day 17 of pregnancy using DigiMed blood pressure analyzer, (MicroMed, Louisville, Ky., 40222-4683). Each measurement of blood pressure is an average of three readings at 1 min intervals from a number of animals (˜3-5 each). Systolic blood pressure was compared among non-pregnant and pregnant mice. All animals were age matched. Data was analyzed using Digi-Med® System Integrator™ Model 400 (DMSI-400).
Total urinary albumen was measures using Albumin (mouse) ELISA kit (ALPCO Diagnostics, Salem, N.H.) and urinary creatinine was measured using Metra Creatinine Kit (Quidel Corporation, San Diego, Calif.). Protinuria as represented as a ration of urinary albumin to creatinine (expressed as μg/mg). (Baseline values seen in mice range from 100-400 μg/mg.)
On g.d. 17 the mice were euthanized, the uterine horns were extracted, photographed and pregnancy outcomes were recorded. […] 10 in IL10^−/− mice. The effects in response to only one administration of serum (100 μl) were evaluated on g.d. 17.

[2] = tested on: endothelial cells (EC) and trophoblasts (HTR) crosstalk; test: In vitro endothelial cell-trophoblast co-culture tube (vacuole) formation assay on matrigel with pregnancy serum; assay type: cell-based, human; conditions: for rescue of mild PE serum induced disrupted EC-HTR8 crosstalk (tube assay): mild preeclampsia serum (mPE), TTR preincubated at 0.1, 1.0, 10 μg/ml of serum; for rescue of severe PE serum induced disrupted EC-HTR8 crosstalk (tube assay): severe preeclampsia serum (sPE), TTR preincubated at 0.1, 1.0, 10 microgram/ml of serum
From the text: The in vitro assay described in this example is based on the premise that during normal pregnancy, fetal derived trophoblasts called the “invasive cytotrophoblasts” invade the maternal decidua and the endothelial cell lined spiral arteries. This phenomenon can be restructured using serum from pregnancy as physiological milieu and culturing human umbilical vein endothelial cells and trophoblasts on basement membrane such as matrigel. […] For additional information see U.S. Provisional Patent Application No. 61/063,491 filed Feb. 4, 2008 and/or Kalkunte, In Vitro and In Vivo Evidence for Lack of Vascular Remodeling by Third Trimester Trophoblasts, Placenta 29: 871-78 (2008).
Recombinantly produced TTR (detected by SDS-PAGE electrophoresis and purity 96%) was obtained from AbD Serotec, Raleigh, N.C. 27604, USA. Recombinant TTR obtained in lyophilized form was reconstituted with sterile phosphate-saline buffer to obtain a final concentration of 1 mg/ml and maintained at >pH 7.0. The solutions were stored as aliquots frozen at −80° C. until use. Thirty minutes prior to experimentation, the aliquots of TTR were thawed, then mixed with serum and incubated at 37° C. for 30 minutes.
The in vitro method further includes incubating a co-culture of human endothelial cells and human trophoblast cells in the presence of serum or plasma obtained from a pregnant person for a period of time sufficient to permit vacuolization (also referred to as “capillary formation” and “tube formation” in FIGS. 2-4), and after incubation determining whether substantial vacuolization in the co-culture has occurred by quantification as described in Example 3.
During pregnancy, angiogenesis is characterized by spiral artery remodeling for which trophoblast invasion into these maternal blood vessels is a prerequisite. The data of FIG. 2 show an in vitro model of interaction of trophoblasts and endothelial cells that mimics spiral artery remodeling. Specifically, 2.5×10^4 endothelial cells labeled red and 2.5×10^4 trophoblasts, labeled green, were co-cultured on matrigel coated plates and stimulated with either NPS (normal pregnancy serum) or severe PES (Preeclampsia Serum) as described above. In the absence of exogenous TTR, serum from severe (FIG. 2 Panel B #5 and C #9) preeclampsia patients blocks the “cross-talk” between endothelial-trophoblast cells, causing obvious differences in architecture as compared to the same cells stimulated under the same conditions with NPS serum (sample L1045; FIG. 2 Panel A, #1).
Briefly, 2.5×10^4 endothelial cells labeled red and 2.5×10^4 trophoblasts, each from different trimesters labeled green (FIG. 2), were co-cultured on matrigel coated plates and stimulated with either NPS or mild PES as described above. […] The number of vacuoles (or tubes) formed per sample were counted and represented in the graph (FIG. 4, mPE with and without TTR). […] Statistical significance of experimental differences was assessed using Student's paired t-test. […]
The in vitro studies conducted in Example 2 were quantified by counting the number of tube like structures termed as “vacuole” under fluorescence microscope (Nikon Eclipse TS 100 coupled with CCD camera) in four different fields at 4× magnification. […]

[3] = sPE serum 100 μl i.p. on g.d. 10 with co-administered TTR 20 microgram/mouse, evaluated g.d. 17

Substance	half life [1]	TTR levels in mouse serum (SELDI-TOF relative intensity) (Pregnant IL-10−/− mice; reduction induced by severe preeclampsia serum, FIG. 6)	intrauterine growth restriction (fetal weight) (Pregnant IL-10−/− mice; [3])	systolic blood pressure (hypertension) (Pregnant IL-10−/− mice; [3])	proteinuria (urinary albumin to creatinine ratio) (Pregnant IL-10−/− mice; sPE serum 100 μl i.p. on g.d. 10 with co-administered TTR 20 microgram/mouse, urine g.d. 16/17)	rescue of mild PE serum induced disrupted EC-HTR8 crosstalk (tube assay) [2]	rescue of mild PE serum induced disrupted EC-HTR8 crosstalk (tube assay) ([2]; listed as Recombinant TTR)	effect on NPS mediated tube formation ([2]; normal pregnancy serum (NPS), TTR 0.1, 1.0, 10 microgram/ml of serum)	rescue of severe PE serum induced disrupted EC-HTR8 crosstalk (tube assay) [2]	rescue of severe PE serum induced disrupted EC-HTR8 crosstalk (tube assay) ([2]; listed as Recombinant TTR)
transthyretin [endogenous TTR]	approximately 2 days	–	–	–	–	–	–	–	–	–
transthyretin [recombinant TTR]	–	rescued	rescues sPE serum induced anomalies	rescues sPE serum induced anomalies	rescues sPE serum induced anomalies	substantially rescues	rescues mPE serum induced disruption	no significant effect	substantially rescues	rescues sPE serum induced disruption

From patent publication US9675664B2, “Compositions, formulations and methods of treating preeclampsia-type disorders of pregnancy” (Women & Infants' Hospital of Rhode Island, priority 2009, dated 2017)
